Measurements taken from ChEMBL document CHEMBL1201862, “PubChem BioAssay data set” (2004).
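Where inhibition never reached the appropriate level, the endpoint shown equals the highest concentration tested. Otherwise, values were interpolated linearly from a five-concentration, 48-hour dose response in 96-well plates. GI50 marks 50% less growth.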 Active and inactive are the calls of the source. No stated cut-off is given here; in the data, active = GI50 up to about 1.1 µM and inactive = higher.

How the values were obtained:
Assay in all cases: DTP human tumour cell line panel, 48 h
SN12C = tested on: SN12C
Hs-578T = tested on: Hs-578T
HOP-62 = tested on: HOP-62
SW-620 = tested on: SW-620
SK-MEL-5 = tested on: SK-MEL-5
BT-549 = tested on: BT-549
COLO 205 = tested on: COLO 205
U-251 = tested on: U-251
SNB-75 = tested on: SNB-75
NCI-H460 = tested on: NCI-H460
HCC 2998 = tested on: HCC 2998
A498 = tested on: A498
EKVX = tested on: EKVX
MDA-MB-231 = tested on: MDA-MB-231
CAKI-1 = tested on: CAKI-1
RPMI-8226 = tested on: RPMI-8226
SF-268 = tested on: SF-268
HCT-15 = tested on: HCT-15
OVCAR-3 = tested on: OVCAR-3
DU-145 = tested on: DU-145
M14 = tested on: M14
IGROV-1 = tested on: IGROV-1
OVCAR-8 = tested on: OVCAR-8
HCT-116 = tested on: HCT-116
NCI-H226 = tested on: NCI-H226
NCI-H23 = tested on: NCI-H23
MOLT-4 = tested on: MOLT-4
SK-MEL-28 = tested on: SK-MEL-28
ACHN = tested on: ACHN
CCRF-CEM = tested on: CCRF-CEM
UACC-257 = tested on: UACC-257
UACC-62 = tested on: UACC-62
NCI-H522 = tested on: NCI-H522
HOP-92 = tested on: HOP-92
K562 = tested on: K562
786-0 = tested on: 786-0
OVCAR-4 = tested on: OVCAR-4
SF-295 = tested on: SF-295
KM12 = tested on: KM12
SF-539 = tested on: SF-539
UO-31 = tested on: UO-31
LOX IMVI = tested on: LOX IMVI
MCF7 = tested on: MCF7
HL-60 = tested on: HL-60
A549 = tested on: A549
SNB-19 = tested on: SNB-19
MDA-MB-435 = tested on: MDA-MB-435
HT-29 = tested on: HT-29
OVCAR-5 = tested on: OVCAR-5
SK-OV-3 = tested on: SK-OV-3
TK-10 = tested on: TK-10
Malme-3M = tested on: Malme-3M
NCI/ADR-RES = tested on: NCI/ADR-RES
SK-MEL-2 = tested on: SK-MEL-2
RXF 393 = tested on: RXF 393
SR = tested on: SR
PC-3 = tested on: PC-3
MDA-N = tested on: MDA-N

CC1=NN(c2nc(N)nc(C/C(N)=N/O)n2)C(C)(C)C1
GI50 (SN12C): > 100 µM (inactive)
GI50 (Hs-578T): > 100 µM (inactive)
GI50 (HOP-62): > 100 µM (inactive)
GI50 (SW-620): > 100 µM (inactive)
GI50 (SK-MEL-5): > 100 µM (inactive)
GI50 (BT-549): > 100 µM (inactive)
GI50 (COLO 205): > 100 µM (inactive)
GI50 (U-251): > 100 µM (inactive)
GI50 (SNB-75): > 100 µM (inactive)
GI50 (NCI-H460): > 100 µM (inactive)
GI50 (HCC 2998): > 100 µM (inactive)
GI50 (A498): > 100 µM (inactive)
GI50 (EKVX): > 100 µM (inactive)
GI50 (MDA-MB-231): > 100 µM (inactive)
GI50 (CAKI-1): > 100 µM (inactive)
GI50 (RPMI-8226): > 100 µM (inactive)
GI50 (SF-268): > 100 µM (inactive)
GI50 (HCT-15): > 100 µM
GI50 (OVCAR-3): > 100 µM (inactive)
GI50 (DU-145): > 100 µM (inactive)
GI50 (M14): > 100 µM (inactive)
GI50 (IGROV-1): > 100 µM (inactive)
GI50 (OVCAR-8): > 100 µM (inactive)
GI50 (HCT-116): > 100 µM (inactive)
GI50 (NCI-H226): > 100 µM (inactive)
GI50 (NCI-H23): > 100 µM (inactive)
GI50 (MOLT-4): > 100 µM (inactive)
GI50 (SK-MEL-28): > 100 µM (inactive)
GI50 (ACHN): > 100 µM (inactive)
GI50 (CCRF-CEM): > 100 µM (inactive)
GI50 (UACC-257): > 100 µM (inactive)
GI50 (UACC-62): > 100 µM (inactive)
GI50 (NCI-H522): > 100 µM (inactive)
GI50 (HOP-92): > 100 µM (inactive)
GI50 (K562): > 100 µM (inactive)
GI50 (786-0): > 100 µM (inactive)
GI50 (OVCAR-4): > 100 µM (inactive)
GI50 (SF-295): > 100 µM (inactive)
GI50 (KM12): > 100 µM (inactive)
GI50 (SF-539): > 100 µM (inactive)
GI50 (UO-31): > 100 µM (inactive)
GI50 (LOX IMVI): > 100 µM (inactive)
GI50 (MCF7): > 100 µM (inactive)
GI50 (HL-60): > 100 µM (inactive)
GI50 (A549): > 100 µM (inactive)
GI50 (SNB-19): > 100 µM (inactive)
GI50 (MDA-MB-435): > 100 µM (inactive)
GI50 (HT-29): > 100 µM (inactive)
GI50 (OVCAR-5): > 100 µM (inactive)
GI50 (SK-OV-3): > 100 µM (inactive)
GI50 (TK-10): > 100 µM (inactive)
GI50 (Malme-3M): > 100 µM (inactive)
GI50 (NCI/ADR-RES): > 100 µM (inactive)

Cc1sc2nc3n(c(=O)c2c1C)N=CN(c1ccc(Cl)cc1)C3
GI50 (SN12C): > 100 µM (inactive)
GI50 (HOP-62): 99.3 µM (inactive)
GI50 (SW-620): > 100 µM (inactive)
GI50 (SK-MEL-5): > 100 µM (inactive)
GI50 (BT-549): > 100 µM (inactive)
GI50 (COLO 205): > 100 µM (inactive)
GI50 (U-251): > 100 µM (inactive)
GI50 (SNB-75): > 100 µM (inactive)
GI50 (NCI-H460): > 100 µM (inactive)
GI50 (HCC 2998): > 100 µM (inactive)
GI50 (A498): > 100 µM (inactive)
GI50 (EKVX): > 100 µM (inactive)
GI50 (MDA-MB-231): > 100 µM (inactive)
GI50 (CAKI-1): > 100 µM (inactive)
GI50 (RPMI-8226): > 100 µM (inactive)
GI50 (SF-268): 39.4 µM (inactive)
GI50 (HCT-15): > 100 µM
GI50 (OVCAR-3): > 100 µM (inactive)
GI50 (DU-145): > 100 µM (inactive)
GI50 (M14): > 100 µM (inactive)
GI50 (IGROV-1): > 100 µM (inactive)
GI50 (OVCAR-8): > 100 µM (inactive)
GI50 (HCT-116): > 100 µM (inactive)
GI50 (NCI-H226): > 100 µM (inactive)
GI50 (SK-MEL-2): > 100 µM (inactive)
GI50 (NCI-H23): > 100 µM (inactive)
GI50 (MOLT-4): > 100 µM (inactive)
GI50 (SK-MEL-28): > 100 µM (inactive)
GI50 (ACHN): > 100 µM (inactive)
GI50 (CCRF-CEM): > 100 µM (inactive)
GI50 (RXF 393): > 100 µM (inactive)
GI50 (SR): 63.4 µM (inactive)
GI50 (UACC-257): > 100 µM (inactive)
GI50 (PC-3): > 100 µM (inactive)
GI50 (UACC-62): > 100 µM (inactive)
GI50 (NCI-H522): 58.7 µM (inactive)
GI50 (HOP-92): > 100 µM (inactive)
GI50 (K562): > 100 µM (inactive)
GI50 (786-0): > 100 µM (inactive)
GI50 (OVCAR-4): > 100 µM (inactive)
GI50 (SF-295): > 100 µM (inactive)
GI50 (KM12): > 100 µM (inactive)
GI50 (MDA-N): > 100 µM (inactive)
GI50 (UO-31): > 100 µM (inactive)
GI50 (LOX IMVI): > 100 µM (inactive)
GI50 (A549): > 100 µM (inactive)
GI50 (SNB-19): > 100 µM (inactive)
GI50 (MDA-MB-435): > 100 µM (inactive)
GI50 (HT-29): > 100 µM (inactive)
GI50 (OVCAR-5): > 100 µM (inactive)
GI50 (SK-OV-3): > 100 µM (inactive)
GI50 (TK-10): > 100 µM (inactive)
GI50 (Malme-3M): 33.3 µM (inactive)
GI50 (NCI/ADR-RES): > 100 µM (inactive)
